Assay results as given in patent US20100041712A1, “SUBSTITUTED IMIDAZOLE COMBINATIONS” (PFIZER INC., priority 2008, published 2010).

Tested on: Ctenocephalides felis
Assay: In-vivo study: topical spot-on formulations on beagle dogs infested with fleas on Day 30
Conditions: compound alone, 30 mg/kg topical, Day 30 infestation (Table 1)
Protocol: In-vivo studies were conducted in compliance with International Cooperation on Harmonisation of Technical Requirements for Registration of Veterinary Products (VICH) and Good Clinical Practice (GCP) principles and practices.
In one in-vivo study, topical spot-on formulations were prepared using dipropylene glycol monomethyl ether (DPGMME) and ethanol (80:20% v/v) and butylated hydroxyl anisol (BHA) 0.1% w/v. Control was vehicle. Treatment T02 was 30 mg/kg (150 mg/mL) compound (1A1); T03 was 20 mg/kg (100 mg/mL) compound (1A1), 6.7 mg/kg (33.5 mg/mL) fipronil, and 6 mg/kg (30 mg/mL) s-methoprene; T04 was 30 mg/kg (150 mg/mL) compound (1A1), 6.7 mg/kg (50.4 mg/mL) fipronil, and 6 mg/kg (45 mg/mL) s-methoprene; and T05 was 30 mg/kg (150 mg/mL) compound (1A1), 6.7 mg/kg (33.5 mg/mL) fipronil and 6 mg/kg (30 mg/mL) s-methoprene. A total of 40 beagle dogs (8 dogs/treatment group) were used. Dogs were individually housed. Treatments were administered on Day 0. On Day 30, dogs were infested with 100 Ctenocephalides felis unfed adult fleas. Dead and non-moving fleas were counted at 24 and 48 hours after infestation (Table 1).

For Cc1cccc([C@H](C)c2ncc[nH]2)c1C [compound (1A1), 2-[(1S)-1-(2,3-dimethylphenyl)ethyl]-1H-imidazole], the intrinsic flea activity was “lacks intrinsic flea activity”.
